Literature values in patent US20060008520A1, “Delayed release formulations of 6-mercaptopurine” (priority 2004, published 2006).

fraction of an oral dose absorbed: Approximately 50%
SMILES: Sc1ncnc2nc[nH]c12 [6-MP, 6-mercaptopurine]
